According to ChEMBL document CHEMBL3885881, “DrugMatrix”:

Species: Rattus norvegicus
Experiment: DrugMatrix - Regimen: Daily Repeat
Format: toxicity, organism-based, Sprague-Dawley
Set-up: regimen Daily Repeat, gender Male, age 6-8 weeks
Conditions: in vivo, po, route oral GAVAGE, vehicle 100 % WATER; for ABSOLUTE BASOPHIL / ABSOLUTE EOSINOPHIL / ABSOLUTE LYMPHOCYTE / ABSOLUTE MONOCYTE / ABSOLUTE SEGMENTED NEUTROPHIL / BASOPHIL / EOSINOPHIL / ERYTHROCYTE COUNT / HEMATOCRIT / HEMOGLOBIN / LEUKOCYTE COUNT / LYMPHOCYTE / MEAN CORPUSCULAR HEMOGLOBIN / MEAN CORPUSCULAR HEMOGLOBIN CONCENTRATION / MEAN CORPUSCULAR VOLUME / MONOCYTE / NEUTROPHIL / NUCLEATED RED BLOOD CELLS / PLATELET COUNT: tissue Blood; for ALANINE AMINOTRANSFERASE / ALBUMIN / ALKALINE PHOSPHATASE / ASPARTATE AMINOTRANSFERASE / BLOOD UREA NITROGEN / CARBON DIOXIDE / CHLORIDE / CHOLESTEROL / CREATINE PHOSPHOKINASE / CREATININE / GLUCOSE / LACTATE DEHYDROGENASE / LIPASE / PHOSPHORUS / POTASSIUM / SODIUM / TOTAL BILIRUBIN / TOTAL PROTEIN / URIC ACID: tissue Plasma
[1] = 58 mg/kg, 120 h, dose level Low, time 5 day
[2] = 1400 mg/kg, 72 h, dose level High, time 3 day
[3] = 1400 mg/kg, 120 h, dose level High, time 5 day

## Cc1cn([C@H]2C=C[C@@H](CO)O2)c(=O)[nH]c1=O [STAVUDINE]
[1]
  ABSOLUTE BASOPHIL: 0 CELLS/uL
  ABSOLUTE EOSINOPHIL: 94.33 CELLS/uL
  ABSOLUTE LYMPHOCYTE: 9260.33 CELLS/uL
  ABSOLUTE MONOCYTE: 0 CELLS/uL
  ABSOLUTE SEGMENTED NEUTROPHIL: 878.67 CELLS/uL
  BASOPHIL: 0%
  EOSINOPHIL: 1%
  ERYTHROCYTE COUNT: 5.68 x10E6/uL
  HEMATOCRIT: 35.3%
  HEMOGLOBIN: 13.67 G/DL
  LEUKOCYTE COUNT: 10.23 x10E3/uL
  LYMPHOCYTE: 90%
  MEAN CORPUSCULAR HEMOGLOBIN: 24.17 pg
  MEAN CORPUSCULAR HEMOGLOBIN CONCENTRATION: 38.73 G/DL
  MEAN CORPUSCULAR VOLUME: 62.33 fL
  MONOCYTE: 0%
  NEUTROPHIL: 9%
  NUCLEATED RED BLOOD CELLS: 0.33 /100WBC
  PLATELET COUNT: 999.33 x10E3/uL
  ALANINE AMINOTRANSFERASE: 49 u/L
  ALBUMIN: 4.1 G/DL
  ALKALINE PHOSPHATASE: 425 u/L
  ASPARTATE AMINOTRANSFERASE: 86.33 u/L
  BLOOD UREA NITROGEN: 14.33 mg/dL
  CARBON DIOXIDE: 28.33 mmol/L
  CHLORIDE: 104 MEQ/L
  CHOLESTEROL: 72.33 mg/dL
  CREATINE PHOSPHOKINASE: 506.33 u/L
  CREATININE: 0.15 mg/dL
  GLUCOSE: 173.33 mg/dL
  LACTATE DEHYDROGENASE: 155.33 u/L
  LIPASE: 8.67 u/L
  PHOSPHORUS: 11.87 mg/dL
  POTASSIUM: 5.3 MEQ/L
  SODIUM: 146.7 MEQ/L
  TOTAL BILIRUBIN: 0.17 mg/dL
  TOTAL PROTEIN: 6.03 G/DL
  URIC ACID: 0.67 mg/dL
[2]
  ABSOLUTE BASOPHIL: 0 CELLS/uL
  ABSOLUTE EOSINOPHIL: 0 CELLS/uL
  ABSOLUTE LYMPHOCYTE: 15246 CELLS/uL
  ABSOLUTE MONOCYTE: 148.33 CELLS/uL
  ABSOLUTE SEGMENTED NEUTROPHIL: 1072.33 CELLS/uL
  BASOPHIL: 0%
  EOSINOPHIL: 0%
  ERYTHROCYTE COUNT: 5.98 x10E6/uL
  HEMATOCRIT: 37.4%
  HEMOGLOBIN: 14.87 G/DL
  LEUKOCYTE COUNT: 16.47 x10E3/uL
  LYMPHOCYTE: 92.67%
  MEAN CORPUSCULAR HEMOGLOBIN: 24.9 pg
  MEAN CORPUSCULAR HEMOGLOBIN CONCENTRATION: 39.77 G/DL
  MEAN CORPUSCULAR VOLUME: 62.67 fL
  MONOCYTE: 1%
  NEUTROPHIL: 6.33%
  NUCLEATED RED BLOOD CELLS: 0 /100WBC
  PLATELET COUNT: 998.33 x10E3/uL
  ALANINE AMINOTRANSFERASE: 113.67 u/L
  ALBUMIN: 3.93 G/DL
  ALKALINE PHOSPHATASE: 510.67 u/L
  ASPARTATE AMINOTRANSFERASE: 191 u/L
  BLOOD UREA NITROGEN: 12.33 mg/dL
  CARBON DIOXIDE: 27 mmol/L
  CHLORIDE: 100.67 MEQ/L
  CHOLESTEROL: 97.33 mg/dL
  CREATINE PHOSPHOKINASE: 237.67 u/L
  CREATININE: 0.15 mg/dL
  GLUCOSE: 155 mg/dL
  LACTATE DEHYDROGENASE: 355 u/L
  LIPASE: 11.33 u/L
  PHOSPHORUS: 12.77 mg/dL
  POTASSIUM: 6.93 MEQ/L
  SODIUM: 142.73 MEQ/L
  TOTAL BILIRUBIN: 0.23 mg/dL
  TOTAL PROTEIN: 5.63 G/DL
  URIC ACID: 1.47 mg/dL
[3]
  ABSOLUTE BASOPHIL: 0 CELLS/uL
  ABSOLUTE EOSINOPHIL: 247.33 CELLS/uL
  ABSOLUTE LYMPHOCYTE: 16216.67 CELLS/uL
  ABSOLUTE MONOCYTE: 311.33 CELLS/uL
  ABSOLUTE SEGMENTED NEUTROPHIL: 2358 CELLS/uL
  BASOPHIL: 0%
  EOSINOPHIL: 1.33%
  ERYTHROCYTE COUNT: 5.64 x10E6/uL
  HEMATOCRIT: 35.57%
  HEMOGLOBIN: 13.87 G/DL
  LEUKOCYTE COUNT: 19.13 x10E3/uL
  LYMPHOCYTE: 84.67%
  MEAN CORPUSCULAR HEMOGLOBIN: 24.6 pg
  MEAN CORPUSCULAR HEMOGLOBIN CONCENTRATION: 39 G/DL
  MEAN CORPUSCULAR VOLUME: 63.1 fL
  MONOCYTE: 1.67%
  NEUTROPHIL: 12.33%
  NUCLEATED RED BLOOD CELLS: 0 /100WBC
  PLATELET COUNT: 1296.67 x10E3/uL
  ALANINE AMINOTRANSFERASE: 50.33 u/L
  ALBUMIN: 4.17 G/DL
  ALKALINE PHOSPHATASE: 429.33 u/L
  ASPARTATE AMINOTRANSFERASE: 75 u/L
  BLOOD UREA NITROGEN: 14.67 mg/dL
  CARBON DIOXIDE: 23 mmol/L
  CHLORIDE: 102 MEQ/L
  CHOLESTEROL: 81.67 mg/dL
  CREATINE PHOSPHOKINASE: 207 u/L
  CREATININE: 0.21 mg/dL
  GLUCOSE: 162 mg/dL
  LACTATE DEHYDROGENASE: 128.33 u/L
  LIPASE: 11.67 u/L
  PHOSPHORUS: 11 mg/dL
  POTASSIUM: 5.59 MEQ/L
  SODIUM: 145 MEQ/L
  TOTAL BILIRUBIN: 0.2 mg/dL
  TOTAL PROTEIN: 5.8 G/DL
  URIC ACID: 1.77 mg/dL
